Laboratory results as given in ChEMBL document CHEMBL1140389, “Synthesis and biological activity of macrocyclic inhibitors of hepatitis C virus (HCV) NS3 protease” (Bioorg Med Chem Lett, 2005).
Starred links: 1 amine or outer side, 2 acyl side, 3 side chain; linkers in the order of their positions; H or OH if unused. Positions of bridges follow the written chain, without caps; N, C: chain ends. Non-standard residues stand in square brackets, D forms with d. Residues, ends and D or L forms follow the SMILES beside them. *: point of attachment. Phe(3-(CH2)7CO) = O=C([C@H](Cc1cccc(CCCCCCCC(=O)[*:3])c1)N[*:1])[*:2]; X1 = CCCC(N[*:1])C(=O)C(=O)[*:2]; Chg = N[C@H](C(=O)O)C1CCCCC1; Phg = N[C@H](C(=O)O)c1ccccc1; OtBu = CC(C)(C)O*

Each compound was assayed against NS3 (Hepatitis C virus, UniProt A3EZJ3) (assay: Inhibitory constant against NS3 serine protease of hepatitis c virus).
Set-up: species or system Hepacivirus hominis

Chain of NS3 (A3EZJ3 whole entry): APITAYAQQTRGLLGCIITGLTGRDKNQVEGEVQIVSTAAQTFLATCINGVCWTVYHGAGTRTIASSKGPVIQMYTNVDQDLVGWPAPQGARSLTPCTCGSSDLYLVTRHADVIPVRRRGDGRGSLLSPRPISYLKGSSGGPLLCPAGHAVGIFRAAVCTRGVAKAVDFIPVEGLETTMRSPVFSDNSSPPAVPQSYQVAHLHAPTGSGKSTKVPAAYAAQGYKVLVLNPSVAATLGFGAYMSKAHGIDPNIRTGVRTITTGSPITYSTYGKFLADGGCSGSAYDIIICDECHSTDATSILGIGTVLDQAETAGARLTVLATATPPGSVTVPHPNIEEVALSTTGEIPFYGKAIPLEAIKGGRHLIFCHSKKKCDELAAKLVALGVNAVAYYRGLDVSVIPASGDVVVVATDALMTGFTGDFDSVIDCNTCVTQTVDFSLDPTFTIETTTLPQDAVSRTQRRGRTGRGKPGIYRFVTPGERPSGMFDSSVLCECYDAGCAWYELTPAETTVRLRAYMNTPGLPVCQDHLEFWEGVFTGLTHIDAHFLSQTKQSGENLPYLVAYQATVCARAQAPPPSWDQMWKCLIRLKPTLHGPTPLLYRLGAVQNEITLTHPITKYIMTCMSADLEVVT

Structure (SMILES) | Ki [nM]
CCCC(NC(=O)[C@@H]1Cc2cccc(c2)/C=C/CCCCCC(=O)N[C@@H](C2CCCCC2)C(=O)N1)C(=O)C(=O)NCC(=O)N[C@H](C(=O)O)c1ccccc1 (stereo not given in full) | 84
CCCC(NC(=O)[C@@H]1Cc2cccc(c2)/C=C/CCCCCC(=O)N[C@@H](C2CCCCC2)C(=O)N1)C(=O)C(=O)NCC(=O)N[C@H](C(=O)N(C)C)c1ccccc1 (stereo not given in full) | 120
CCCC(NC(=O)[C@@H]1Cc2cccc(c2)/C=C/CCCCCC(=O)N[C@@H](C2CCCCC2)C(=O)N1)C(=O)C(=O)NCC(=O)N[C@H](C(=O)OC(C)(C)C)c1ccccc1 (stereo not given in full) | 1200
CCCC(NC(=O)[C@@H]1Cc2cccc(c2)CCCCCCCC(=O)N[C@@H](C2CCCCC2)C(=O)N1)C(=O)C(=O)NCC(=O)N[C@H](C(=O)N(C)C)c1ccccc1 (stereo not given in full) ([Chg][Phe(3-(CH2)7CO)][X1]G[Phg]-NMe2; lactam N-2) | 110
CCCC(NC(=O)[C@@H]1Cc2cccc(c2)CCCCCCCC(=O)N[C@@H](C2CCCCC2)C(=O)N1)C(=O)C(=O)NCC(=O)N[C@H](C(=O)OC(C)(C)C)c1ccccc1 (stereo not given in full) ([Chg][Phe(3-(CH2)7CO)][X1]G[Phg]-OtBu; lactam N-2) | 2300
